Laboratory results as given in the supplement of paper PMC10307832.

Experiments:
Experiment in all cases: relative viability (nuclei count vs DMSO), 5 days (fraction); higher = more cells survive
[1] = compound: CN(C)CC1=CC(=CC=C1)N=C(C2=CC=CC=C2)C3=C(NC4=C3C=CC(=C4)C(=O)N(C)C)O + N=C(N)NC(=N)NCCc1ccccc1 [Phenformin] (partner 250 µM)
In short: (§1)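 The day after seeding in 1536-well plates, lung cancer cell lines were treated by pin tool with a single drug, or with a fixed anchor-drug dose together with five library-drug doses (not always all listed) in √10 steps. After 5 days, a combined fix-and-stain solution (final 0.05% Triton X-100, 1% formaldehyde, 1 ug/ml Hoechst) was added. Nuclei counted on 4× images gave relative viability as treated counts over vehicle counts, reported as the median of duplicate plates.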

[2] = compound: CN(C)CC1=CC(=CC=C1)N=C(C2=CC=CC=C2)C3=C(NC4=C3C=CC(=C4)C(=O)N(C)C)O + C[C@@H](Oc1cc(-c2cnn(C3CCNCC3)c2)cnc1N)c1c(Cl)ccc(F)c1Cl [Crizotinib] (partner 1 µM)
In short: as §1

[3] = compound: CN(C)CC1=CC(=CC=C1)N=C(C2=CC=CC=C2)C3=C(NC4=C3C=CC(=C4)C(=O)N(C)C)O + Nc1ncn([C@H]2C[C@H](O)[C@@H](CO)O2)c(=O)n1 [Decitabine] (partner 2 µM)
In short: as §1

[4] = compound: CN(C)CC1=CC(=CC=C1)N=C(C2=CC=CC=C2)C3=C(NC4=C3C=CC(=C4)C(=O)N(C)C)O + CC1(C)CCC(c2ccc(Cl)cc2)=C(CN2CCN(c3ccc(C(=O)NS(=O)(=O)c4ccc(N[C@H](CCN5CCOCC5)CSc5ccccc5)c(S(=O)(=O)C(F)(F)F)c4)cc3)CC2)C1 [Navitoclax] (partner 0.5 µM)
In short: as §1

Row | Cell Line | relative viability ([1]; first compound 0.08 µM) | relative viability ([1]; first compound 0.253 µM) | relative viability ([1]; first compound 0.8 µM) | relative viability ([1]; first compound 2.53 µM) | relative viability ([1]; first compound 8 µM) | relative viability ([2]; first compound 0.08 µM) | relative viability ([2]; first compound 0.253 µM) | relative viability ([2]; first compound 0.8 µM) | relative viability ([2]; first compound 2.53 µM) | relative viability ([2]; first compound 8 µM) | relative viability ([3]; first compound 0.08 µM) | relative viability ([3]; first compound 0.253 µM) | relative viability ([3]; first compound 0.8 µM) | relative viability ([3]; first compound 2.53 µM) | relative viability ([3]; first compound 8 µM) | relative viability ([4]; first compound 0.08 µM) | relative viability ([4]; first compound 0.253 µM) | relative viability ([4]; first compound 0.8 µM) | relative viability ([4]; first compound 2.53 µM) | relative viability ([4]; first compound 8 µM)
1 | HCC-78 | 0.642 | 0.812 | 0.675 | 0.698 | 0.738 | 0.327 | 0.282 | 0.297 | 0.34 | 0.372 | 0.564 | 0.716 | 0.766 | 0.681 | 0.665 | 0.894 | 0.734 | 0.807 | 0.75 | 0.769
2 | HCC-366 | 0.648 | 0.612 | 0.641 | 0.566 | 0.601 | 0.484 | 0.503 | 0.513 | 0.47 | 0.558 | 0.385 | 0.36 | 0.34 | 0.333 | 0.341 | 0.969 | 1.03 | 1.07 | 1.07 | 0.901
3 | HCC-827 | 0.374 | 0.404 | 0.323 | 0.396 | 0.356 | 0.919 | 0.909 | 0.923 | 0.879 | 0.868 | 0.334 | 0.349 | 0.305 | 0.367 | 0.341 | 1.04 | 1.02 | 1.06 | 1 | 0.941
4 | HOP-62 | 0.7 | 0.64 | 0.677 | 0.601 | 0.629 | 0.927 | 0.907 | 1.09 | 1.06 | 0.882 | 0.21 | 0.282 | 0.195 | 0.206 | 0.262 | 1.05 | 0.94 | 1.03 | 1.04 | 0.977
5 | IA-LM | – | – | – | – | – | 0.937 | 0.797 | 0.906 | 0.926 | 1.04 | – | – | – | – | – | – | 0.848 | 0.766 | 0.915 | 1.02
6 | LC-2-ad | 0.623 | 0.582 | 0.563 | 0.526 | 0.575 | 0.406 | 0.402 | 0.486 | 0.4 | 0.441 | 0.694 | 0.848 | 0.747 | 0.841 | 0.782 | 0.456 | 0.515 | 0.429 | 0.515 | 0.338
7 | LCLC-97TM1 | 0.466 | 0.408 | 0.475 | 0.438 | 0.422 | 0.37 | 0.517 | 0.453 | 0.331 | 0.445 | 0.271 | 0.261 | 0.225 | 0.219 | 0.205 | 0.325 | 0.276 | 0.362 | 0.395 | 0.734
8 | LCLC-103H | 0.347 | 0.368 | 0.304 | 0.337 | 0.291 | 1.14 | 1.06 | 0.914 | 1.02 | 0.979 | 0.785 | 0.725 | 0.723 | 0.739 | 0.641 | – | – | – | – | –
9 | LK-2 | 0.511 | 0.475 | 0.306 | 0.374 | 0.244 | 0.249 | 0.21 | 0.264 | 0.256 | 0.216 | 0.306 | 0.375 | 0.276 | 0.328 | 0.286 | 1.06 | 0.784 | 0.897 | 0.789 | 0.761
